Reference: publication PMC9851200, “Multiparameter phenotypic screening for endogenous TFEB and TFE3 translocation identifies novel chemical series modulating lysosome function” (Autophagy, 2022)

Key:
SH-SY5Y cells [1] = assay: AK (adenylate kinase) release ToxiLight cytotoxicity assay; conditions: PKIS2 primary screening
Protocol: Total cell lysis with 5 µL 5% Triton-X 100 (Sigma-Aldrich, T8787) is used as a positive control for the assay and toxicity is expressed as a percentage of luminescence under DMSO conditions.

endogenous TFEB = assay: TFEB nuclear translocation, immunocytochemistry high-content imaging; assay type: cell-based; conditions: PKIS2 primary screening
SH-SY5Y cells [2] = conditions: PKIS2 primary screening; for DQ Intensity: DQ Red BSA intensity; for DQ Spot: DQ Red BSA spot count
Description: The PKIS2 Library was supplied by The Structural Genomics Consortium at the University of North Carolina at Chapel Hill.

SH-SY5Y cells [3] = assay: Chemotype enrichment analysis of PKIS2 primary screen hit categories; conditions: PKIS2 primary screening, hit category
SH-SY5Y cells [4] = assay: Nuclear count from microscopy images (cellular growth and toxicity); conditions: PKIS2 primary screening
endogenous TFE3 = assay: TFE3 nuclear translocation, immunocytochemistry high-content imaging; assay type: cell-based; conditions: PKIS2 primary screening

Compound | AK (SH-SY5Y cells [1]) | TFEB % (endogenous TFEB) [%] | DQ Intensity (SH-SY5Y cells [2]) | DQ Spot (SH-SY5Y cells [2]) | Outcome (SH-SY5Y cells [3]) | Nuclear Count (SH-SY5Y cells [4]) | TFE3 % (endogenous TFE3) [%]
COc1cc(Nc2ccnc3cc(-c4ccncc4)ccc23)cc(OC)c1OC.Cl [UNC10225049A] | 108.07 | 12.84 | 164.74 | 83.88 | DQ Only | 54.75 | 16.25
c1ccc(Oc2ccc(Nc3ccnc4cc(-c5ccc(CNCCN6CCOCC6)o5)ccc34)cc2)nc1 [UNC10225054A] | 119.39 | 22.56 | 95.11 | 49.97 | LYSO TOXIC | 92.65 | 33.41
CC(C)NCC(Cc1ccccc1)NC(=O)c1cc(Br)c(-c2ccnc3[nH]ccc23)s1.Cl.Cl (centres unmarked) [UNC10225078A] | 109.26 | 25.83 | 114.59 | 48.43 | LYSO TOXIC | 95.97 | 47.42
N#Cc1cnc2cc(-c3cnc(CNCCN4CCOCC4)s3)ccc2c1Nc1ccc(Oc2ccccc2)cc1 [UNC10225079A] | 71.03 | 5.31 | 48.97 | 51.66 | LYSO TOXIC | 110.49 | 6.45
c1ccc(Oc2ccc(Nc3ccnc4cc(-c5ccc(CN6CCCCC6)o5)ccc34)cc2)nc1 [UNC10225094A] | 71.77 | 15.03 | 89.29 | 45.68 | LYSO TOXIC | 127.56 | 31.67
Fc1cc(Cl)ccc1Nc1ccnc2cc(-c3ccc(CN4CCOCC4)o3)ccc12 [UNC10225106A] | 77.69 | 10.01 | 127.02 | 67.74 | LYSO TOXIC | 98.32 | 18.79
Cl.Cl.NC[C@H](Cc1ccc(C(F)(F)F)cc1)NC(=O)c1cc(Br)c(-c2ccnc3[nH]ccc23)s1 [UNC10225108A] | 105.44 | 5.26 | 147.21 | 85.33 | TFE3 | 144.66 | 23.22
Nc1ncc(-c2ccc3nccc(-c4ccncc4)c3c2)cc1S(=O)(=O)N1CCCCC1 [UNC10225117A] | 150.20 | 3.14 | 254.18 | 83.51 | TOXIC | 82.78 | 4.68
Nc1nccc2scc(-c3ccc4c(c3)CCN4C(=O)Cc3ccccc3)c12 [UNC10225119A] | 128.12 | 5.51 | 60.09 | 72.10 | LYSO TOXIC | 119.23 | 4.70
Cl.c1ccc(Oc2ccc(Nc3ccnc4cc(-c5ccc(CN6CCNCC6)o5)ccc34)cc2)nc1 [UNC10225130B] | 101.15 | 17.19 | 87.94 | 55.20 | LYSO TOXIC | 88.02 | 38.53
Cl.Cn1ccc(-c2cccc(Nc3ccnc4cc(-c5nccs5)ccc34)c2)n1 [UNC10225141A] | 174.83 | 12.07 | 161.91 | 66.27 | TOXIC | 43.03 | 26.05
COc1cc2nccc(Nc3cccc(Oc4ccccc4)c3)c2cc1OC.Cl [UNC10225170A] | 71.46 | 18.56 | 93.52 | 79.85 | TFEB/TFE3 | 91.34 | 29.93
Cl.Cl.NC(CNC(=O)c1cc(Br)c(-c2ccnc3[nH]ccc23)s1)c1ccccc1 (centres unmarked) [UNC10225176A] | 110.45 | 17.27 | 298.60 | 72.64 | TFEB/3 + DQ Int | 58.33 | 37.70
Cc1ccc(C(=O)Nc2ccc(Nc3ccnc4cc(-c5ccccn5)ccc34)cc2O)cc1.Cl [UNC10225182A] | 82.72 | 30.37 | 19.25 | 15.81 | LYSO TOXIC | 71.22 | 92.07
